From patent EP2608783B1, “USE OF GLYCYRRHETINIC ACID, GLYCYRRHIZIC ACID AND RELATED COMPOUNDS FOR PREVENTION AND/OR TREATMENT OF PULMONARY FIBROSIS” (Zhang, Lurong, priority 2010, dated 2012)

Columns and labels:
[1] = test system: inflammatory mediators (IMs), including IL1a, TNFa, PF4 and VCAM-1; experiment: Inflammatory mediators in lung homogenates by ELISA, acute phase of IR-induced pneumonitis; type: in vivo, C57BL/6 fibrosis-prone mice; conditions: 2.5 days after thoracic IR at 15 Gy, compared to vehicle-treated mice, p<0.05
Experimental: Briefly, C57BL/6 fibrosis-prone mice received a single-dose of thoracic IR at 15 Gy with a dose rate of 1.9 Gy/min. Six hours after IR exposure, the mice were divided into the following treatment groups: 1) normal (received 0 Gy; no treatment); 2) vehicle-treated; 3) GA-treated (30-40 mg/kg/ q.o.d) (i.e. every other day) (the GA dosage used herein was derived from the effective dosage for humans (3-4 mg/kg), which is typically 6-10 times lower than that of mice); 4) dexamethasone-treated (Positive Control 1) (Dex, 3 mg/kg, i.m. or p.o. qod); 5) amifostine-treated (Positive Control 2) (Ami, 200 mg/kg/ i.v, 0.5 hr prior to irradiation); and 6) celebrex-treated (Positive Control 3) (30 mg/kg, po, qod).
The mice were sacrificed 2.5 days after IR exposure, and fresh lung tissue homogenates were prepared using lysis buffer mixed with protenase inhibitor cocktails. After protein concentration was adjusted to 1 mg/ml, the fresh lung homogenates were added to ELISA plates at a concentration of 100 µl/well. The levels of inflammatory mediators were measured by ELISA.

IR-induced pneumonitis [2] = experiment: Lung morphology: plasma exudation and inflammatory cell infiltration, acute phase of IR-induced pneumonitis; type: in vivo, C57BL/6 fibrosis-prone mice; conditions: 2.5 days after thoracic IR at 15 Gy
Experimental: Briefly, C57BL/6 fibrosis-prone mice received a single-dose of thoracic IR at 15 Gy with a dose rate of 1.9 Gy/min and were treated as described in Example 2. The mice were sacrificed 2.5 days after IR exposure, and lung tissues were harvested and analyzed for morphological changes.

SP-D and IL1a = experiment: Plasma levels of SP-D and IL1a, acute phase of IR-induced pneumonitis; type: in vivo, C57BL/6 fibrosis-prone mice; conditions: 2.5 days after thoracic IR at 15 Gy; P<0.05
Experimental: IR damages lung epithelium and endothelium cells, and causes dysfunction of tight junction, increased cellular permeability, and the loss of integrity of the alveolar-capillary barrier. As a result, SP-D and ILla abnormally enter into the blood from inflamed pulmonary tissue, leading to elevated plasma levels of SP-D and IL1a. In this Example, C57BL/6 fibrosis-prone mice received a single-dose of thoracic IR at 15 Gy with a dose rate of 1.9 Gy/min and were treated as described in Example 2. The mice were sacrificed 2.5 days after IR exposure, and plasma levels of SP-D and IL1a were measured.

IR-induced pneumonitis [3] = experiment: Sub-acute phase of IR-induced pneumonitis: lung tissue and bronchoalveolar lavage fluid (BALF) assays; type: in vivo, C57BL/6 fibrosis-prone mice
Experimental: Briefly, C57BL/6 fibrosis-prone mice received a thoracic IR and were treated as described in Example 2. The mice were sacrificed 17 days after IR exposure, and lung tissues were harvested. Bronchoalveolar lavage fluid (BALF) assays were performed.

[4] = test system: IL1a, TNFa, lymphotactin and p-selectin; experiment: Inflammatory mediators, GA given 24 hours after IR exposure; type: in vivo, mice; conditions: GA administered 24 hours after IR exposure; thoracic IR at 5, 10 and 15 Gy
Experimental: The administration of GA 24 hours after IR exposure can effectively block the surge in inflammatory responses.

[5] = test system: IR-induced pulmonary fibrosis; experiment: Respiratory rate (rodent ventilator with pressure plethysmograph) in IR-induced pulmonary fibrosis; type: in vivo, mice; conditions: GA 30-40 mg/kg q.o.d. or twice/week for 3 months; 7 months after IR at 15 Gy, 5 months after IR at 18 Gy; P<0.05
Experimental: Mice exposed to thoracic IR develops pulmonary fibrosis 6 months after IR exposure at 18 Gy, 8 months after IR exposure at 15 Gy, and 10 months after IR exposure at 12.5 Gy. To access the treatment effects of GA on lung fibrosis and lung function, the respiratory rate, lung density, and lung compliance of the mice were determined. To assess improvement on respiratory function, mice exposed to thoracic IR at 15 Gy were treated with GA (30-40 mg/kg) q.o.d. or twice/week for 3 months. Mouse respiratory rate was measured using a Harvard rodent ventilator connected to a pressure plethysmograph.

[6] = test system: IR-induced pulmonary fibrosis; experiment: Lung density by cone beam CT scan (CBCT) in IR-induced pulmonary fibrosis; type: in vivo, mice; conditions: for abnormal increase in lung density: 7.5 months after IR exposure at 15 Gy (Figure 14), P<0.05
Experimental: To assess effects of GA on lung density, cone beam CT scan (CBCT) of mouse lungs was performed. CBCT provides a complete 3D 650×650×428 scan (i.e. 428 slices) of the lungs with isotropic resolution at 270 µm (central slice shown in Fig. 11) in 30 seconds. The scanner achieves a CT density sensitivity of ∼[…], and thus, changes in lung density can be discerned. The CBCT imaging data were further analyzed using MATLAB software. The lungs were automatically segmented (Fig. 12A) and a 3D image was generated for each mouse lung (Fig. 12B). To reduce the effect of cardiac motion on the mean value of lung density, boundaries of the lungs were not used for analysis. A histogram of voxel intensity (pulmonary tissue density) of each mouse was created (Fig. 13).

[7] = test system: IR-induced pulmonary fibrosis; experiment: Lung compliance (plethysmograph pressure-volume measurements); type: in vivo, mice; conditions: 6.5 months after IR exposure at 15 Gy; P<0.05
Experimental: To assess the effects of GA on lung compliance, mice were anesthetized and their trachea were surgically exposed and incised. An 18-gauge, 1 cm stainless steel tube was inserted into the trachea and secured with surgical sutures. The respiratory rate and tidal volume of the mice were measured by a Harvard rodent ventilator. The average respiratory rate was 150 breaths per minute and the tidal volume was adjusted according to the weight (0.01 ml per gram body weight). The mice were then placed in a plethysmograph for pressure-volume measurements.

IR-induced fibrosis = experiment: Lung histology (H&E stain, trichrome blue collagen stain) in IR-induced fibrosis; type: in vivo, mice; conditions: GA 40 mg/kg/q.o.d. for 3 months; 7 months after IR exposure at 15 Gy
Experimental: Briefly, mice treated with GA (40 mg/kg/q.o.d.) for 3 months were sacrificed 7 months after IR exposure at 15 Gy, and lung tissue specimens were stained using hematoxylin and eosin (H&E) stain. […] To assess whether GA reduces abnormal collagen deposition in lungs, lung tissue specimen was stained with collagen-binding trichrome blue dye.

hydroxyproline; TGFβ = experiment: Hydroxyproline and TGFβ levels in lungs; type: in vivo, mice
Excerpt: The reduction of collagen deposition was further analyzed by measuring the levels of hydroxyproline, a key component of collagen.

[8] = Long-term toxicity observation (activity, fur morphology, body weight); type: in vivo
Excerpt: No mouse died during GA treatment.

growth hormone (GH) = experiment: Plasma growth hormone by ELISA during long-term treatment
Experimental: In addition, plasma levels of growth hormone (GH) were measured using ELISA at Weeks 6, 7, and 10 after GA treatments.

IR-induced pneumonitis [9] = experiment: Clinical case: GLA tablets in a lung cancer patient receiving 2nd IR treatment; type: in vivo; conditions: one patient
Experimental: In collaboration with radiation oncologists at the First Affiliated Hospital of Fujian Medical School in China, GLA tablets (produced by Minophagen Co. in Japan and available in pharmacies in China) were administered to a patient who received their 2nd IR treatment for lung cancer. […] To control the progression of pneumonitis, they received dexamethasone treatment. Due to tumor re-growth 9 months after their 1st IR treatment, they received a 2nd IR treatment with warnings that IR may worsen pneumonitis. In order to mitigate IR-induced lung injury, GLA was administered at a dose of 150 mg per day (equivalent to GA about 85 mg per day) starting from the date of 2nd IR treatment for 3 months. The result was unexpectedly surprising.

[10] = test system: ACTH (adrenocorticotropic hormone); conditions: in vivo
Experimental: The chemical structure of GA is similar to that of cortisol. Thus, this Example investigates whether the long-term use of GA would affect the production of cortisol and cause side effects. The plasma levels of ACTH (adrenocorticotropic hormone), a cortisol-releasing hormone, were measured using ELISA at Weeks 6, 7, and 10 after GA-treatments (40 mg/kg, qod, p.o).

pulmonary fibrosis = experiment: Inventors' observation on dexamethasone in pulmonary fibrosis; type: in vivo; conditions: compared to the non-treated controls
[11] = 17 days after IR exposure at 15 Gy, P<0.05
[12] = 17 days after IR exposure, P<0.05

CC1(C)[C@@H](O)CC[C@]2(C)[C@H]3C(=O)C=C4[C@@H]5C[C@@](C)(C(=O)O)CC[C@]5(C)CC[C@@]4(C)[C@]3(C)CC[C@@H]12 [GA, glycyrrhetinic acid]
levels of inflammatory mediators (IMs), including IL1a, TNFa, PF4 and VCAM-1 [1]: effectively reduced
plasma exudation and inflammatory cell infiltration into the interstitial space (IR-induced pneumonitis [2]): potently suppressed
plasma levels of IL1a (SP-D and IL1a): effectively reduced
plasma levels of SP-D (SP-D and IL1a): effectively reduced
infiltration of neutrophils into the interstitial fluid (IR-induced pneumonitis [3]; 17 days after IR exposure at 15 Gy): suppression
level of neutrophils infiltrated into the bronchoalveolar lavage fluid (IR-induced pneumonitis [3]; [11]): reduced
myeloperoxidase (MPO) activity in (BALF) (IR-induced pneumonitis [3]; [11]): reduced
level of lymphotactin (IR-induced pneumonitis [3]; [12]): reduced
level of p-selectin (IR-induced pneumonitis [3]; [12]): reduced
levels of key inflammatory mediators including IL1a, TNFa, lymphotactin and p-selectin [4]: potently reduced
respiratory rate [5]: effectively reduced
abnormal increase in lung density [6]: significantly reduced
Mean Density (HU) ([6]; lung density, 1 year post IR exposure at 18 Gy): -458 HU
lung compliance [7]: potently, and mostly effectively, enhanced
collagen deposition caused by IR exposure (trichrome blue dye) (IR-induced fibrosis): reduces
lung morphology (H&E stain) (IR-induced fibrosis): near-normal morphology
hydroxyproline levels in the lungs (hydroxyproline; TGFβ; compared to IR + vehicle control, P<0.05): reduced
level of TGFβ (hydroxyproline; TGFβ; pro-fibrotic factor, Figure 18B): reduced
death during treatment ([8]; long-term use): No mouse died
side effects of long-term use ([8]; mouse, in vivo): little side effects
plasma GH level (growth hormone (GH); in vivo): increased

CC1(C)[C@@H](O[C@H]2O[C@H](C(=O)O)[C@@H](O)[C@H](O)[C@H]2O[C@@H]2O[C@H](C(=O)O)[C@@H](O)[C@H](O)[C@H]2O)CC[C@]2(C)[C@H]3C(=O)C=C4[C@@H]5C[C@@](C)(C(=O)O)CC[C@]5(C)CC[C@@]4(C)[C@]3(C)CC[C@@H]12 [GLA, glycyrrhizic acid]
symptoms of pneumonitis or fibrosis (IR-induced pneumonitis [9]; 150 mg per day for 3 months from date of 2nd IR treatment): did not exhibit any symptom of pneumonitis or fibrosis
lung density (CT) (IR-induced pneumonitis [9]; CT results of 1st versus 2nd IR treatment (Figure 20)): significantly reduced

NCCCNCCSP(=O)(O)O [amifostine]
levels of inflammatory mediators (IMs), including IL1a, TNFa, PF4 and VCAM-1 [1]: extent of inhibition by GA was comparable

Cc1ccc(-c2cc(C(F)(F)F)nn2-c2ccc(S(N)(=O)=O)cc2)cc1 [celebrex, reference compound]
levels of inflammatory mediators (IMs), including IL1a, TNFa, PF4 and VCAM-1 [1]: extent of inhibition by GA was comparable
abnormal increase in lung density [6]: reduction in lung density by GA is more potent
loss of body weight (BW) ([8]; 7.5 months post IR exposure at 15 Gy, vehicle-treated mice lost 6-7 grams): less severe loss of BW

C[C@@H]1C[C@H]2[C@@H]3CCC4=CC(=O)C=C[C@]4(C)[C@@]3(F)[C@@H](O)C[C@]2(C)[C@@]1(O)C(=O)CO [dexamethasone]
reduction in ACTH levels [10]: 10-50 fold
plasma GH level (growth hormone (GH); measured at Weeks 6, 7, and 10): increased
effect on pulmonary fibrosis (pulmonary fibrosis): worsening of pulmonary fibrosis
